From patent US9067908B2, “Polyphenolic bioprecursors” (RHODIA CHIMIE, priority 2005, dated 2015)
Entries after “also recorded” stand apart in the source; their conditions may differ. Read-outs that look alike come from different tables or passages of the source.

Legend:
[1] = tested on: Stratum corneum enzymatic extract; assay: Bio-hydrolysis with the cutaneous enzymes obtained by tape stripping; settings: for Bio-hydrolysis Rate (%): 35° C.
Protocol: (§1) Samples of Stratum corneum are taken with surgical sparadrap (type Blenderm 3M Health Care, St. Paul, Minn., USA). The buffers used in the bio-hydrolysis trials are: 50 mM Tris(tris[hydroxymethyl]aminomethane) pH 7.3 and pH 8; 50 mM Na-acetate pH 5.5; 50 mM MES (2-[N-morpholino]-ethanesulphonic) acid pH 6 and 50 mM phosphate pH 6.5.
(§2) The precursors are solubilised in acetonitrile at a concentration of 1 g/l. For the bio-hydrolysis trials 50 μl of substrate and 50 μl of acetonitrile in 900 μl of enzymatic extract in the buffer at a chosen pH are added. The reaction mixtures are incubated at 35° C. without stirring and shielded from the light. The evolution of the bio-hydrolysis is determined by HPLC (high-performance liquid chromatography) with reverse phase polarity. The controls are effected in the same solutions without enzymatic extracts of skin, in order to determine the chemical stability of the products.

[2] = tested on: Stratum corneum enzymatic extract
Protocol: as §1, §2

[3] = Solubility of precursor in the bio-hydrolysis medium; format: physicochemical
Text: Resveratrol trilipoate is obtained via lipoic acid chloride prepared in situ under argon at ambient temperature in dichloromethane. The acylation reaction leads to a mixture of the products of coupling (phenolic and recorcinic monolipoates, dilipoates and trilipoates). The trilipoates were obtained after chromatography on silica. The product was not characterised for reasons of insolubility. For the same reasons it cannot be bio-hydrolysed (see Table 1).

| Active substance(s) released by bio-hydrolyse: Polyphenol (PP) [2] | Bio-hydrolysis Rate (%) [2] [%] | Compound | Active substance(s) released by bio-hydrolyse: A [1] | Active substance(s) released by bio-hydrolyse: B [1] | Active substance(s) released by bio-hydrolyse: Polyphenol (PP) [1] | further results |
| --- | --- | --- | --- | --- | --- | --- |
| – | – | CC(=O)Oc1cc(OC(=O)CCC(=O)Oc2c(C)c(C)c3c(c2C)CCC(C)(CCCC(C)CCCC(C)CCCC(C)C)O3)c2c(=O)cc(-c3ccc(OC(C)=O)c(OC(C)=O)c3)oc2c1 (stereo not drawn) [Lut(Ac)3-succinate-Vit E, 7-acetoxy-2-(3,4-diacetoxyphenyl)-4-oxo-4H-chromen-5-yl 2,5,7,8-tetramethyl-2-(4,8,12-trimethyltridecyl)-3,4-dihydro-2H-chromen-6-yl succinate] | Acetate +; also recorded: Succinate | Vitamin E | Luteolin | Bio-hydrolysis Rate (%) ([1]; bio-hydrolysis time 5 h): 70% |
| Resveratrol | 95 | CCCCCC(=O)Oc1ccc(/C=C/c2cc(OC(C)=O)cc(OC(C)=O)c2)cc1 [Res(Ac)2-caproate, 3,5-resveratrol diacetate-4′-caproate] | – | – | – | – |
| – | – | COc1cc(/C=C/C(=O)Oc2ccc(/C=C/c3cc(OC(C)=O)cc(OC(C)=O)c3)cc2)ccc1OC(C)=O [Res(Ac)2-ferulate(Ac), (E)-4-((E)-3,5-diacetoxystyryl)phenyl 3-(4-acetoxy-3-methoxyphenyl)acrylate] | Acetate | Ferulic acid | Resveratrol | Bio-hydrolysis Rate (%) ([1]; bio-hydrolysis time 6.5 h): 71% |
| – | – | CC(=O)Oc1cc(/C=C/c2ccc(OC(=O)CCCCC3CCSS3)cc2)cc(OC(C)=O)c1 (stereo not drawn) [Res(Ac)2-lipoate, (E)-4-(3,5-diacetoxystyryl)phenyl-5-(1,2-dithiolan-3-yl)pentanoate] | Acetate | Lipoate | lipoic acid; also recorded: Resveratrol + | Bio-hydrolysis Rate (%) ([1]; bio-hydrolysis time 48 h): 87% |
| Resveratrol | 98 | CCCCCC(=O)Oc1ccc(/C=C/c2cc(OC(=O)CCCCC)cc(OC(=O)CCCCC)c2)cc1 [Res(caproate)3, 3,5,4′-resveratrol tricaproate, reference compound] | – | – | – | Active substance(s) released by bio-hydrolyse: A [2]: Caproate |
| – | – | O=C(CCCCC1CCSS1)Oc1ccc(/C=C/c2cc(OC(=O)CCCCC3CCSS3)cc(OC(=O)CCCCC3CCSS3)c2)cc1 (stereo not drawn) [Res(lipoate)3, 3,5,4′-resveratrol trilipoate] | – | – | – | Solubility of precursor in the medium [3]: insolubility |
